In ChEMBL document CHEMBL5321216, “Discovery of bipyridine amide derivatives targeting pRXRα-PLK1 interaction for anticancer therapy” (Eur J Med Chem, 2023):
The source made the active and inactive calls. The rule behind the calls is not given here.

What was measured:
[1] = system: MDA-MB-231; test: Antitumor activity against human MDA-MB-231 cells xenografted in BALB/c nude mouse assessed as inhibition of tumor growth by measuring mitotic arrest at 12.5 to 25 mg/kg/day, ip administered for 15 days; assay type: functional, organism-based; details: dose 12.5-25 mg/kg/day, time 15.0 day
[2] = Toxicity in BALB/c mouse xenografted with human MDA-MB-231 cells assessed as spleen damage at 25 mg/kg/day, ip administered for 15 days by H and E staining based analysis; assay type: organism-based; details: in vivo, 360 h, time 15 day
[3] = system: MDA-MB-231; test: Induction of apoptosis in human MDA-MB-231 cells assessed as early apoptotic cells at 250 nM incubated for 24 hrs by annexin V-FITC/PI staining based flow cytometry analysis (reference value: 2.03%); assay type: functional
[4] = system: MDA-MB-231; test: Induction of cell cycle arrest in human MDA-MB-231 cells assessed as accumulation of cells at G2 phase at 125 nM incubated for 12 hrs by flow cytometry analysis (reference value: 15.91%); assay type: functional
[5] = Cytotoxicity against HK-2 cells assessed as inhibition of cell proliferation incubated for 72 hrs by MTT assay; assay type: toxicity, cell-based; details: human
[6] = system: MDA-MB-231; test: Antitumor activity against human MDA-MB-231 cells xenografted in BALB/c nude mouse assessed as nuclear shrinkage in tumor at 25 mg/kg/day, ip administered for 15 days by immunohistochemical analysis; assay type: functional, organism-based; details: time 15.0 day
[7] = system: MDA-MB-231; test: Antitumor activity against human MDA-MB-231 cells xenografted in BALB/c nude mouse assessed as reduction in Ki67 protein expression at 25 mg/kg/day, ip administered for 15 days by immunohistochemical analysis; assay type: functional, organism-based; details: time 15.0 day
[8] = system: MDA-MB-231; test: Antitumor activity against human MDA-MB-231 cells xenografted in BALB/c nude mouse assessed as reduction in RXRalpha protein expression at 25 mg/kg/day, ip administered for 15 days by immunohistochemical analysis; assay type: functional, organism-based; details: time 15.0 day
[9] = system: MDA-MB-231; test: Antitumor activity against human MDA-MB-231 cells xenografted in BALB/c nude mouse assessed as reduction in tumor volume at 25 mg/kg/day, ip administered for 15 days and measured once a day; assay type: functional, organism-based; details: time 15.0 day
[10] = molecular target: T1, Retinoic acid receptor RXR-alpha (Homo sapiens) (UniProt P19793); test: Antagonist activity at RXRalpha (unknown origin) transfected in human HeLa cells assessed as inhibition of CD3254- induced receptor transactivation by measuring remaining luciferase activity at 1 uM incubated for 24 hrs by dual luciferase reporter assay; assay type: cell-based; details: filed as antagonist
T1 sequence (whole entry): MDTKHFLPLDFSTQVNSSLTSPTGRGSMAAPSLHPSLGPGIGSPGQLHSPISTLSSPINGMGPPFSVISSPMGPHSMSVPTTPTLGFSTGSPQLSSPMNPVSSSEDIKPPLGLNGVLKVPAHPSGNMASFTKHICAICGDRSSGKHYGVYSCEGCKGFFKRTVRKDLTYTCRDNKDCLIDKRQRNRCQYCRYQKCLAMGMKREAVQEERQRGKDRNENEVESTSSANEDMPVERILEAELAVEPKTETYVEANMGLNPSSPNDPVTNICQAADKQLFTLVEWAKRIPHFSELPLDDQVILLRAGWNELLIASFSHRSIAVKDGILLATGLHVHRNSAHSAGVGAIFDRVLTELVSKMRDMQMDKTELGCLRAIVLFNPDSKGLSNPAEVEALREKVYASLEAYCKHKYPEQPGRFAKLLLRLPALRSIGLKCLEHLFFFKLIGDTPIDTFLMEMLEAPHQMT

[11] = system: MDA-MB-231; test: Antiproliferative activity against human MDA-MB-231 cells assessed as cell viability rate at 5 uM incubated for 72 hrs by MTT assay relative to control; assay type: functional
[12] = system: A549; test: Induction of apoptosis in human A549 cells assessed as late apoptotic cells at 31.25 nM incubated for 24 hrs by annexin V-FITC/PI staining based flow cytometry analysis (reference value: 5.28%); assay type: functional
[13] = system: A549; test: Antiproliferative activity against human A549 cells assessed as inhibition of cell proliferation incubated for 72 hrs by MTT assay; assay type: functional, cell-based; details: A549, 72 h
[14] = system: A549; test: Induction of cell cycle arrest in human A549 cells assessed as accumulation of cells at G2 phase at 125 nM incubated for 12 hrs by flow cytometry analysis (reference value: 8.62%); assay type: functional
[15] = system: HeLa; test: Inhibition of MYC tagged pRXRalpha-FLAG tagged PLK1 (unknown origin) protein-protein interaction transfected in human HeLa cells at 500 nM incubated for 3 hrs by co-immunoprecipitation assay; assay type: cell-based
[16] = molecular target: T2, Retinoic acid receptor RXR-alpha (Homo sapiens, UniProt P19793); test: Binding affinity to RXRalpha LBD (unknown origin) assessed as dissociation constant by fluorescence quenching analysis
T2 sequence (P19793 whole entry): T1 sequence (whole entry)

[17] = system: MDA-MB-231; test: Upregulation of phosphorylated RXRalpha protein level in human MDA-MB-231 cells at 125 to 500 nM incubated for 24 hrs in presence of thermosensitive alkaline phosphatase by Western blot analysis; assay type: functional, cell-based; details: dose 125-500 nM
[18] = Drug absorption in KM mouse at 25 mg/kg, po measured after 0.5 to 2 hrs; assay type: ADME, organism-based; details: in vivo, time 0.5-2 hrs
[19] = system: MDA-MB-231; test: Induction of apoptosis in human MDA-MB-231 cells assessed as dead cells at 31.25 nM incubated for 24 hrs by annexin V-FITC/PI staining based flow cytometry analysis (reference value: 0.69%); assay type: functional
[20] = system: A549; test: Induction of cell cycle arrest in RXRalpha knockout human A549 cells assessed as accumulation of cells at S phase at 125 nM incubated for 12 hrs by DAPI staining based flow cytometry analysis (reference value: 32.74%); assay type: functional
[21] = system: A549; test: Induction of apoptosis in human A549 cells assessed as dead cells at 62.5 nM incubated for 24 hrs by annexin V-FITC/PI staining based flow cytometry analysis (reference value: 0.75%); assay type: functional
[22] = system: MDA-MB-231; test: Downregulation of RXRalpha protein level in human MDA-MB-231 cells at 125 nM measured after 1 to 24 hrs by Western blot analysis; assay type: functional, cell-based; details: time 1-24 hrs
[23] = Tmax in Sprague-Dawley rat at 25 mg/kg, ip measured for 48 hrs by LC-MS/MS analysis; assay type: ADME, organism-based; details: in vivo
[24] = molecular target: T1, Retinoic acid receptor RXR-alpha (Homo sapiens); test: Antagonist activity at RXRalpha (unknown origin) transfected in human HeLa cells at 31.25 uM incubated for 24 hrs by dual luciferase reporter assay; assay type: cell-based; details: filed as antagonist
[25] = system: MDA-MB-231; test: Upregulation of phosphorylated RXRalpha protein level in human MDA-MB-231 cells at 125 to 500 nM measured after 24 hrs by Western blot analysis; assay type: functional, cell-based; details: dose 125-500 nM
[26] = molecular target: T2, Retinoic acid receptor RXR-alpha; test: Binding affinity to RXRalpha LBD (unknown origin) assessed as increase in response unit by measuring dissociation constant by SPR analysis
[27] = Selectivity index, ratio of IC50 for human NCI-H460 cells to IC50 for human MDA-MB-231 cells; assay type: functional
[28] = system: MDA-MB-231; test: Induction of apoptosis in human MDA-MB-231 cells assessed as dead cells at 125 nM incubated for 24 hrs by annexin V-FITC/PI staining based flow cytometry analysis (reference value: 0.69%); assay type: functional
[29] = system: MDA-MB-231; test: Induction of cell cycle arrest in human MDA-MB-231 cells assessed as accumulation of cells at S phase at 31.25 nM incubated for 12 hrs by flow cytometry analysis (reference value: 40.89%); assay type: functional

O=C(/C=C/c1ccccc1)Nc1cc(-c2ccnc(N3CCC(CO)CC3)c2)ccn1
Activity [1]: Active | Activity [2]: Non-Toxic | Activity [3]: 20.2% | Activity [4]: 85.88% | IC50 at 72 h [5]: 372 nM | Activity [6]: Active | Activity [7]: Active | Activity [8]: Active | Activity [9]: Active | inhibition [10]: Active | Activity [11]: 31.72% | Activity [12]: 18.9% | IC50 [13]: 201 nM | Activity [14]: 46.39% | inhibition [15]: Active | Kd [16]: 147 nM | Activity [17]: inactive | Drug absorption [18]: Not Active | Activity [19]: 0.93% | Activity [20]: 36.18% | Activity [21]: 2.76% | Activity [22]: Active | Tmax [23]: 8.4 min | Activity [24]: Active | Activity [25]: Active | Kd [26]: 39.4 nM | Ratio IC50 [27]: 15.81 | Activity [28]: 2.78% | Activity [29]: 30.34%
